In EPA's ToxValDB 9.5 (doi:10.2903/j.efsa.2006.59r):
≈ marks a conversion by molar mass, not a printed value.

What was measured:
[1] = test system: Tagia sp.; settings: mortality
[2] = test system: Orius insidiosus; settings: acute, duration: 7 days
[3] = test system: Rattus norvegicus; settings: oral; for NOAEL: diet, neurology
[4] = test system: Oncorhynchus mykiss
[5] = test system: Bird
[6] = test system: Daphnia magna; settings: chronic/long-term; duration: 21 days
[7] = test system: Apis mellifera; settings: acute, mortality

Work on COP(=S)(OC)Oc1ccc([N+](=O)[O-])c(C)c1 [Fenitrothion] yielded an LC50 ([1]; acute) of 231 mg/kg, an NOEC ([1]; chronic/long-term) of 2.5 mg/kg and an LEL ([2]; mortality) of 715 g/ha. It also gave an LEL ([2]; reproduction) of 715 g/ha, an LD50 ([3]; acute, mortality) of 330 mg/kg-day and an NOAEL ([3]; chronic, duration: 2 years) of 0.5 mg/kg-day. For the same compound, the NOAEL ([3]; subchronic, duration: 90 days) was 1.32 mg/kg-day, the LC50 ([4]; acute, duration: 96 hours, mortality) was 1.3 mg/L (≈ 4.69 µM) and the NOEC ([4]; chronic/long-term, duration: 96 days) was 0.088 mg/L. For the same compound, the LD50 ([5]; acute, oral, unspecified, mortality) was 2.3 mg/kg-day, the NOEC ([5]; reproductive) was 2.34 mg/kg and the LC50 ([5]; short-term, oral, feed, mortality) was 23 mg/kg. For the same compound, the NOEC [6] was 0.087 µg/L, the LD50 ([7]; dermal) was 0.16 µg/piece and the LD50 ([7]; oral, unspecified) was 0.2 µg/piece.
